Consider 11 molecules from patent US11071731B2, “Allosteric modulators of the mu opioid receptor” (Chiromics, LLC, priority 2017, dated 2021).

Broadly, the EC50 is the concentration that produces a half-maximal response.

Some results are limits rather than exact numbers.

Experiment [1] concerns the target T1, mu opioid receptor (MOR) (Homo sapiens, UniProt P35372). Description: PathHunter β-arrestin recruitment assay, PAM mode with EC20 endomorphin-1. Format: cell-based. The following applies: for β-arr Max. Resp.: maximal response for β-arrestin recruitment; for EC50: β-arrestin recruitment, read-out: β-arr. EC50. As for the experimental part:
The effects of MOR PAMs and MOR SAMs on receptor activity were assayed using the PathHunter enzyme complementation assay technology (DiscoveRx, CA). A description of the technology employed is as follows.
Beta-Arrestin Pathway: The PathHunter β-arrestin assay monitors the activation of a GPCR in a homogenous, non-imaging assay format using a technology developed by DiscoveRx called Enzyme Fragment Complementation (EFC) with beta-galactosidase (β-Gal) as the functional reporter. […] EA is fused to β-Arrestin and ED is fused to the GPCR of interest. When the GPCR is activated and β-arrestin is recruited to the receptor, ED and EA complementation occurs, restoring β-gal activity, which is measured using chemiluminescent PathHunter Detection Reagents.
In this manner an EC50 for each test compound, and percent maximal response for each test compound, were determined for both the β-arrestin and cAMP pathways. Though the pharmacological effects of a given signal bias can be hypothesized (Raehal et al. (2011) Pharmacol. Rev. 63:1001-1019), it is not possible to know with certainty which bias ratio will be most advantageous in a clinical setting. […] Kenakin 2015a, supra. The information associated with the compounds detailed herein is the first large data set available for the prediction of ligand bias for an MOR PAM.
On the technique in general: Arrestin recruitment assays detect the binding of arrestin to an activated receptor.

The target in experiment [2] is T1, mu opioid receptor (MOR). Description: Hit Hunter cAMP signaling assay (adenylyl cyclase inhibition), PAM mode with EC20 endomorphin-1. The experiment is classed as cell-based. The following applies: for EC50: adenylyl cyclase inhibition, read-out: cAMP EC50; for cAMP Max. Resp.: maximal response for adenylyl cyclase inhibition.

T1 sequence (P35372 whole entry): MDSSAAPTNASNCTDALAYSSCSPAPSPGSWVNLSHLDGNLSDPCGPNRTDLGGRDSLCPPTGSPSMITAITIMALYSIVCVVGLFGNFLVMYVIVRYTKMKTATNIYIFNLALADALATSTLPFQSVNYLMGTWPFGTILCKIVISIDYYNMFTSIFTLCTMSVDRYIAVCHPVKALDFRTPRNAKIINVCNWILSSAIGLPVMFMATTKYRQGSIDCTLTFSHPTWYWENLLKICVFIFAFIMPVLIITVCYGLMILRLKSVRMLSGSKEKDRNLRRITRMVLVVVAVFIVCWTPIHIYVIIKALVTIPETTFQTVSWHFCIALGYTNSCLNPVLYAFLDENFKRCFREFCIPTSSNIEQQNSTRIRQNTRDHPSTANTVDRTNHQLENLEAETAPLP

Take `CC1CCN(S(=O)(=O)c2ccc(Cl)cc2)C1c1ccc(OC(F)(F)F)c(Br)c1` (mixture of isomers) [Compound 94]: in experiment [1], the “β-arr Max. Resp.” value was “F (F represents a maximal response of > 60%)” and the EC50 is under 700 nM. Moreover, in experiment [2], the 50% effective concentration (EC50) is under 700 nM and the “cAMP Max. Resp.” value is “D (D represents a maximal response of < 40%)”.
As to `CC1CCN(S(=O)(=O)c2ccc(Cl)cc2)C1c1ccc(F)cc1` (mixture of isomers) [Compound 95], in experiment [1], the “β-arr Max. Resp.” value is reported as “F (F represents a maximal response of > 60%)” and the EC50 was over 2100 nM. Besides, in experiment [2], the EC50 is over 2100 nM and the “cAMP Max. Resp.” value was “D (D represents a maximal response of < 40%)”.
Consider `CC1CCN(S(=O)(=O)c2ccc(Cl)cc2)C1c1ccc2c(c1)OCO2` (mixture of isomers) [Compound 96], for which, in experiment [1], the “β-arr Max. Resp.” value is reported as “F (F represents a maximal response of > 60%)” and the 50% effective concentration (EC50) was over 2100 nM. In addition, in experiment [2], the EC50 was over 2100 nM and the “cAMP Max. Resp.” value was “D (D represents a maximal response of < 40%)”.
As for `CC1CCN(S(=O)(=O)c2ccc(Cl)cc2)C1c1ccc(F)c(F)c1` (mixture of isomers) [Compound 97], in experiment [1], the “β-arr Max. Resp.” value was “F (F represents a maximal response of > 60%)” and the EC50 was in the range of 700 to 2100 nM. For the same molecule, in experiment [2], the EC50 lay within 700 to 2100 nM and the “cAMP Max. Resp.” value is “D (D represents a maximal response of < 40%)”.
In the case of `CC1CCN(S(=O)(=O)c2ccc(Cl)cc2)C1c1ccc(F)c(F)c1F` (mixture of isomers) [Compound 98], in experiment [1], the “β-arr Max. Resp.” value is “E (E represents a maximal response of 40-60%)” and the EC50 was over 2100 nM. In addition, in experiment [2], the EC50 is over 2100 nM and the “cAMP Max. Resp.” value is given as “D (D represents a maximal response of < 40%)”.
As for `CC1CCN(S(=O)(=O)c2ccc(Cl)cc2)C1c1ccc(Cl)c(Br)c1` (mixture of isomers) [Compound 99], in experiment [1], the “β-arr Max. Resp.” value is listed as “E (E represents a maximal response of 40-60%)” and the EC50 was under 700 nM. In experiment [2], the EC50 is under 700 nM and the “cAMP Max. Resp.” value was “D (D represents a maximal response of < 40%)”.
Turning to `Cc1cc(C2C(C)CCN2S(=O)(=O)c2ccc(Cl)cc2)ccc1F` (mixture of isomers) [Compound 101], in experiment [1], the “β-arr Max. Resp.” value is on record as “F (F represents a maximal response of > 60%)” and the EC50 fell in the range of 700 to 2100 nM. Further, in experiment [2], the concentration for a half-maximal effect (EC50) was under 700 nM and the “cAMP Max. Resp.” value is given as “D (D represents a maximal response of < 40%)”.
For `COc1ccc(C2C(C)CCN2S(=O)(=O)c2ccc(Cl)cc2)cc1Br` (mixture of isomers) [Compound 102], in experiment [1], the “β-arr Max. Resp.” value is reported as “F (F represents a maximal response of > 60%)” and the EC50 is over 2100 nM. In experiment [2], the EC50 was in the range of 700 to 2100 nM and the “cAMP Max. Resp.” value was “E (E represents a maximal response of 40-60%)”.
The corresponding values for `COc1ccc(C2N(S(=O)(=O)c3ccc(Cl)cc3)CCC2(F)C(F)(F)F)cc1Br` (mixture of isomers) [Compound 103] are “F (F represents a maximal response of > 60%)”, over 2100 nM, 700 to 2100 nM and “D (D represents a maximal response of < 40%)”.
For `Cc1ccc(C2C(C)CCN2S(=O)(=O)c2ccc(Cl)cc2)cc1Br` (mixture of isomers) [Compound 104] the same measures were “F (F represents a maximal response of > 60%)”, 700 to 2100 nM, 700 to 2100 nM and “D (D represents a maximal response of < 40%)”.
The corresponding values for `CC1CCN(S(=O)(=O)c2ccc(Cl)cc2)C1c1ccc(F)c(Cl)c1` (mixture of isomers) [Compound 105] are “F (F represents a maximal response of > 60%)”, 700 to 2100 nM, 700 to 2100 nM and “D (D represents a maximal response of < 40%)”.
